Patent US12497365B2, “4-pyridinyl formamide compound or derivative thereof, preparation method therefor, herbicidal composition and use thereof” (Qingdao Kingagroot Chemical Compound Co., Ltd., priority 2019, dated 2025)

Experiments:
Experiment in all cases: Weeding effect in post-emergence stage
Type in all cases: in vivo
Settings in all cases: active ingredient 2000 g/ha, 3 weeks after application, fresh weight control rate
Abutilon theophrasti = system: Abutilon theophrasti
Summary of the method: (§1)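 Pot-grown weeds at the 2-3 leaf stage receive a tower spray of test compound at 2000, 1000, 500, 250 or 125 g/ha, formulated in acetone with Tween 80 and methyl oleate synergist. Fresh weight reduction is rated on an activity scale 3 weeks later.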

[1] = system: Amaranthus retroflexus L.
Summary of the method: as §1

Chenopodium album = system: Chenopodium album
Summary of the method: as §1

Descurainia sophia = system: Descurainia sophia
Summary of the method: as §1

SMILES | Weeding effect, activity level (growth control rate), Abutilon theophrasti (Abutilon theophrasti) | Weeding effect, activity level (growth control rate), Amaranthus retroflexus L. [1] | Weeding effect, activity level (growth control rate), Chenopodium album (Chenopodium album) | Weeding effect, activity level (growth control rate), Descurainia sophia (Descurainia sophia)
Cn1nnnc1NC(=O)c1ccnc(-c2ccc(C=O)o2)c1Cl [Compound 1-185] | 5 (Level 5: growth control rate is above 85%) | 5 (Level 5: growth control rate is above 85%) | 5 (Level 5: growth control rate is above 85%) | 5 (Level 5: growth control rate is above 85%)
Cn1nnnc1NC(=O)c1ccnc(-c2ccccn2)c1Cl [Compound 1-119] | 5 (Level 5: growth control rate is above 85%) | 5 (Level 5: growth control rate is above 85%) | 5 (Level 5: growth control rate is above 85%) | 5 (Level 5: growth control rate is above 85%)
Cn1nnnc1NC(=O)c1ccnc(-c2cccc(C#N)c2F)c1Cl [Compound 1-80] | 5 (Level 5: growth control rate is above 85%) | 5 (Level 5: growth control rate is above 85%) | 5 (Level 5: growth control rate is above 85%) | 5 (Level 5: growth control rate is above 85%)
Cn1nnnc1NC(=O)c1ccnc(-c2ccnc(Cl)c2Cl)c1Cl [Compound 1-152] | 5 (Level 5: growth control rate is above 85%) | 5 (Level 5: growth control rate is above 85%) | 5 (Level 5: growth control rate is above 85%) | 5 (Level 5: growth control rate is above 85%)
Cc1nn(C)cc1-c1nccc(C(=O)Nc2nnnn2C)c1Cl [Compound 1-169] | 5 (Level 5: growth control rate is above 85%) | 5 (Level 5: growth control rate is above 85%) | 5 (Level 5: growth control rate is above 85%) | 5 (Level 5: growth control rate is above 85%)
Cc1cc(F)ncc1-c1nccc(C(=O)Nc2nnnn2C)c1Cl [Compound 1-136] | 5 (Level 5: growth control rate is above 85%) | 5 (Level 5: growth control rate is above 85%) | 5 (Level 5: growth control rate is above 85%) | 5 (Level 5: growth control rate is above 85%)
Cc1cc(-c2nccc(C(=O)Nc3nnnn3C)c2Cl)n(C)n1 [Compound 1-179] | 5 (Level 5: growth control rate is above 85%) | 5 (Level 5: growth control rate is above 85%) | 5 (Level 5: growth control rate is above 85%) | 5 (Level 5: growth control rate is above 85%)
CCOC(C)n1cc(-c2nccc(C(=O)Nc3nnnn3C)c2Cl)cn1 (stereo not shown) [Compound 1-176] | 5 (Level 5: growth control rate is above 85%) | 5 (Level 5: growth control rate is above 85%) | 5 (Level 5: growth control rate is above 85%) | 5 (Level 5: growth control rate is above 85%)
Cn1nnnc1NC(=O)c1ccnc(-c2ccc(F)cc2)c1OCC(F)(F)F [Compound 1-202] | 5 (Level 5: growth control rate is above 85%) | 5 (Level 5: growth control rate is above 85%) | 5 (Level 5: growth control rate is above 85%) | 5 (Level 5: growth control rate is above 85%)
Cn1nnnc1NC(=O)c1ccnc(-c2ccc(Br)cc2)c1Cl [Compound 1-22] | 5 (Level 5: growth control rate is above 85%) | 5 (Level 5: growth control rate is above 85%) | 5 (Level 5: growth control rate is above 85%) | 5 (Level 5: growth control rate is above 85%)
Cn1nnnc1NC(=O)c1ccnc(-c2ccc(I)cc2)c1Cl [Compound 1-25] | 5 (Level 5: growth control rate is above 85%) | 5 (Level 5: growth control rate is above 85%) | 5 (Level 5: growth control rate is above 85%) | 5 (Level 5: growth control rate is above 85%)
C=CCc1c(C(=O)Nc2nnnn2C)ccnc1-c1ccc(F)cc1 [Compound 1-219] | 5 (Level 5: growth control rate is above 85%) | 5 (Level 5: growth control rate is above 85%) | 5 (Level 5: growth control rate is above 85%) | 5 (Level 5: growth control rate is above 85%)
Cn1nccc1-c1nccc(C(=O)Nc2nnnn2C)c1Cl [Compound 1-178] | 5 (Level 5: growth control rate is above 85%) | 5 (Level 5: growth control rate is above 85%) | 5 (Level 5: growth control rate is above 85%) | 5 (Level 5: growth control rate is above 85%)
Cn1nnnc1NC(=O)c1ccnc(-c2cccc(OC(F)(F)F)c2)c1Cl [Compound 1-32] | 5 (Level 5: growth control rate is above 85%) | 5 (Level 5: growth control rate is above 85%) | 5 (Level 5: growth control rate is above 85%) | 5 (Level 5: growth control rate is above 85%)
Cn1nnnc1NC(=O)c1ccnc(-c2cccnc2)c1Cl [Compound 1-124] | 5 (Level 5: growth control rate is above 85%) | 5 (Level 5: growth control rate is above 85%) | 5 (Level 5: growth control rate is above 85%) | 5 (Level 5: growth control rate is above 85%)
Cn1nnnc1NC(=O)c1ccnc(-c2cccs2)c1Cl [Compound 1-186] | 5 (Level 5: growth control rate is above 85%) | 5 (Level 5: growth control rate is above 85%) | 5 (Level 5: growth control rate is above 85%) | 5 (Level 5: growth control rate is above 85%)
Cn1nnnc1NC(=O)c1ccnc(-c2ccc(S(C)(=O)=O)cc2)c1Cl [Compound 1-45] | 5 (Level 5: growth control rate is above 85%) | 5 (Level 5: growth control rate is above 85%) | 5 (Level 5: growth control rate is above 85%) | 5 (Level 5: growth control rate is above 85%)
C#Cc1c(C(=O)Nc2nnnn2C)ccnc1-c1ccc(F)cc1 [Compound 1-220] | 5 (Level 5: growth control rate is above 85%) | 5 (Level 5: growth control rate is above 85%) | 5 (Level 5: growth control rate is above 85%) | 5 (Level 5: growth control rate is above 85%)
Cn1ncnc1NC(=O)c1ccnc(-c2ccc(F)cc2)c1Cl [Compound 1-334] | 5 (Level 5: growth control rate is above 85%) | 5 (Level 5: growth control rate is above 85%) | 5 (Level 5: growth control rate is above 85%) | 5 (Level 5: growth control rate is above 85%)
Cn1nnnc1NC(=O)c1ccnc(-c2ccc(Cl)s2)c1Cl [Compound 1-189] | 5 (Level 5: growth control rate is above 85%) | 5 (Level 5: growth control rate is above 85%) | 5 (Level 5: growth control rate is above 85%) | 5 (Level 5: growth control rate is above 85%)
Cn1nnnc1NC(=O)c1ccnc(-c2cc(F)cc(C#N)c2)c1Cl [Compound 1-81] | 5 (Level 5: growth control rate is above 85%) | 5 (Level 5: growth control rate is above 85%) | 5 (Level 5: growth control rate is above 85%) | 5 (Level 5: growth control rate is above 85%)
Cn1nnnc1NC(=O)c1ccnc(OCc2ccccc2)c1Cl [Compound 1-2064] | 5 (Level 5: growth control rate is above 85%) | 5 (Level 5: growth control rate is above 85%) | 5 (Level 5: growth control rate is above 85%) | 5 (Level 5: growth control rate is above 85%)
